Assay results reported in paper PMC4830539, “Chemical Inhibition of Histone Deacetylases 1 and 2 Induces Fetal Hemoglobin through Activation of GATA2” (PLoS ONE, 2016).

Test system: histone acetylation at GATA2 regulatory regions
Assay: ChIP-QPCR of histone acetylation at GATA2 regulatory regions
Assay type: cell-based, human
Details: -1.8 kb GATA2 regulatory region, 1 μM
Procedure: Cells were fixed in 1% formaldehyde for 15 minutes at room temperature. Crosslinking reaction was extinguished by adding glycine to 125 mM. Cells were washed three times in PBS, 0.5% lgepal CA-630, 1 mM phenylmethanesulfonyl fluoride (PMSF). Cell pellets were snap frozen on dry ice and stored at -80°C.
For ChIP-QPCR experiments, chromatin (11 μg) from vehicle (n = 1) or ACY-957 (n = 1) treated cells was fragmented by sonication, then immunoprecipitated (n = 3, each) using antibodies against histone H3 lysine 9 acetylation (3 μg, ab10812, Abcam), histone H2B lysine 5 acetylation (6 μL, ab40886, Abcam), histone H3 lysine 27 acetylation (3 μg, ab4729, Abcam), or GATA2 (6 μg, SC-9008, Santa Cruz). Specific genomic regions within immunoprecipitated and input DNA was detected using SYBR green QPCR with the following primer pairs:
To investigate how HDAC1/2 inhibition drives GATA2 activation, we performed a series of chromatin immunoprecipitation (ChIP) experiments. BM cells were expanded in CS1, and then shifted to CS1 differentiation media in the presence of vehicle or 1 μM ACY-957 for several days, yielding erythroid progenitor cells with TFRC/GYPA differentiation profiles similar to those used for GeneChip experiments and unaffected by compound treatment (Fig 8A and 8B). […]

Nc1ccc(-c2cccs2)cc1NC(=O)c1ccc2nc(N3CCNCC3)ccc2c1 [ACY-957]
maximum increases in histone acetylation (H3K9ac, H2BK5ac, H3K27ac): 4- to 8 fold
